Laboratory results: paper PMC6401853, “Fabrication of Carbohydrate Chips Based on Polydopamine for Real-Time Determination of Carbohydrate–Lectin Interactions by QCM Biosensor” (Polymers, 2018)

Target: wheat germ agglutinin (WGA)
Experiment: QCM biosensor kinetics, lectin over immobilized amino-GlcNAc derivative on polydopamine chip, […] fit
Type: binding

## CC(=O)N[C@H]1C(O)O[C@H](CO)[C@@H](O)[C@@H]1O (stereo partly shown) [N-Acetylglucosamine]
  Kd: 47.2 nM
